pIC50: −log10 of the molar value. Active and inactive are the calls of the source. The rule behind the calls is not given here.
Experiments:
[1] = molecular target: Epidermal growth factor receptor (Homo sapiens) (UniProt P00533); assay: Induction of EGFR degradation in human HCC827 cells assessed as EGFR protein level measured after 72 hrs under normoxic condition by Western blot assay; assay type: functional, cell-based
HCC827 [2] = assay: Antiproliferative activity against human HCC827 cells assessed as cell viability measured after 72 hrs by CCK-8 assay; assay type: functional, cell-based
[3] = molecular target: Epidermal growth factor receptor (Homo sapiens) (UniProt P00533); assay: Induction of EGFR degradation in human HCC827 cells assessed as EGFR protein level measured after 72 hrs by Western blot assay; assay type: cell-based
HCC827 [4] = assay: Antiproliferative activity against human HCC827 cells assessed as cell viability measured after 72 hrs under hypoxic condition by CCK-8 assay; assay type: functional, cell-based; settings: HCC827, 72 h
[5] = molecular target: von Hippel-Lindau disease tumor suppressor/Epidermal growth factor receptor (Homo sapiens) (UniProt P00533+P40337); assay: Protac activity at VHL/EGFR in human HCC827 cells assessed as induction of EGFR degradation at 100 nM pretreated for 2 hrs with VHL-L followed by compound addition; assay type: cell-based
von Hippel-Lindau disease tumor suppressor/Epidermal growth factor receptor (Homo sapiens), sequence (P00533 25-1210 limits assumed): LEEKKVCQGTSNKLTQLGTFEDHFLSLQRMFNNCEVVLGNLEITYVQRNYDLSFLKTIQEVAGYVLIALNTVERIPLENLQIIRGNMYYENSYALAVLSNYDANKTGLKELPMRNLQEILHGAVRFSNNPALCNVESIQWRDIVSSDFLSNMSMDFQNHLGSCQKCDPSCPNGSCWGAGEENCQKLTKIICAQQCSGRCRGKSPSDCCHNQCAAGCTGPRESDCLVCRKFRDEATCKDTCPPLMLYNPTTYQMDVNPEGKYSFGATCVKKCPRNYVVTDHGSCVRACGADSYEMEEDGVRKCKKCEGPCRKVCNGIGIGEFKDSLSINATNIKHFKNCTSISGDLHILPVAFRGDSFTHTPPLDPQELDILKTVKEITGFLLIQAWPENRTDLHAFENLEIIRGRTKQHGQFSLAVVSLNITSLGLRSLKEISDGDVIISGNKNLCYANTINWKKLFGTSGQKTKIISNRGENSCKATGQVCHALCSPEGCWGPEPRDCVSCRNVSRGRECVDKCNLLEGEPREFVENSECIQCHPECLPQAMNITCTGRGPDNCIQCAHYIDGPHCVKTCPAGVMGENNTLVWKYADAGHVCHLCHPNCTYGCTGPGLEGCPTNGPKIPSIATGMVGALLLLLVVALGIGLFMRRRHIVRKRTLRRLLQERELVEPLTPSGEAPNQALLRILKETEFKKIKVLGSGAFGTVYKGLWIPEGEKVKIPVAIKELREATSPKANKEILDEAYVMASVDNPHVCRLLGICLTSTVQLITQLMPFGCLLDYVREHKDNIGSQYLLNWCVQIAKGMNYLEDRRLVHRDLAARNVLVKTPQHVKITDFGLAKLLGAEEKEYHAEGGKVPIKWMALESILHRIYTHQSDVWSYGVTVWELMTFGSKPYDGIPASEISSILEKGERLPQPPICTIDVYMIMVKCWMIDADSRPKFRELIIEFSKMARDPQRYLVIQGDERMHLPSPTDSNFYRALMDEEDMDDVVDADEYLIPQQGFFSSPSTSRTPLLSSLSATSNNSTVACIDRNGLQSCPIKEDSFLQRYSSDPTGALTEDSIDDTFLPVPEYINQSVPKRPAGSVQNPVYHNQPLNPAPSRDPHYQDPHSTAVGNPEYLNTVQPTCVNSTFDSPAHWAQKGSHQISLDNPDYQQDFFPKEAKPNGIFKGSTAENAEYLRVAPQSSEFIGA
von Hippel-Lindau disease tumor suppressor/Epidermal growth factor receptor (Homo sapiens), sequence (P40337 whole entry partner): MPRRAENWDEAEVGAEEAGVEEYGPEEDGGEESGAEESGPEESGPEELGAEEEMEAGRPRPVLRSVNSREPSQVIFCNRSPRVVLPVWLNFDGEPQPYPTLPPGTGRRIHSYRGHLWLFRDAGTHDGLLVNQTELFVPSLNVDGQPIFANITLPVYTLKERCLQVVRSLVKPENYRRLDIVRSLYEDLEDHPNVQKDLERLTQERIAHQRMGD

HCC827 [6] = assay: Antiproliferative activity against human HCC827 cells assessed as cell viability measured after 72 hrs in presence of NTR by CCK-8 assay; assay type: functional, cell-based; settings: HCC827, 72 h
HCC827 [7] = assay: Antiproliferative activity against human HCC827 cells assessed as reduction in cell viability measured after 72 hrs under normoxic condition by CCK-8 assay; assay type: functional, cell-based; settings: HCC827, 72 h

Epidermal growth factor receptor (Homo sapiens), sequence (P00533 whole entry): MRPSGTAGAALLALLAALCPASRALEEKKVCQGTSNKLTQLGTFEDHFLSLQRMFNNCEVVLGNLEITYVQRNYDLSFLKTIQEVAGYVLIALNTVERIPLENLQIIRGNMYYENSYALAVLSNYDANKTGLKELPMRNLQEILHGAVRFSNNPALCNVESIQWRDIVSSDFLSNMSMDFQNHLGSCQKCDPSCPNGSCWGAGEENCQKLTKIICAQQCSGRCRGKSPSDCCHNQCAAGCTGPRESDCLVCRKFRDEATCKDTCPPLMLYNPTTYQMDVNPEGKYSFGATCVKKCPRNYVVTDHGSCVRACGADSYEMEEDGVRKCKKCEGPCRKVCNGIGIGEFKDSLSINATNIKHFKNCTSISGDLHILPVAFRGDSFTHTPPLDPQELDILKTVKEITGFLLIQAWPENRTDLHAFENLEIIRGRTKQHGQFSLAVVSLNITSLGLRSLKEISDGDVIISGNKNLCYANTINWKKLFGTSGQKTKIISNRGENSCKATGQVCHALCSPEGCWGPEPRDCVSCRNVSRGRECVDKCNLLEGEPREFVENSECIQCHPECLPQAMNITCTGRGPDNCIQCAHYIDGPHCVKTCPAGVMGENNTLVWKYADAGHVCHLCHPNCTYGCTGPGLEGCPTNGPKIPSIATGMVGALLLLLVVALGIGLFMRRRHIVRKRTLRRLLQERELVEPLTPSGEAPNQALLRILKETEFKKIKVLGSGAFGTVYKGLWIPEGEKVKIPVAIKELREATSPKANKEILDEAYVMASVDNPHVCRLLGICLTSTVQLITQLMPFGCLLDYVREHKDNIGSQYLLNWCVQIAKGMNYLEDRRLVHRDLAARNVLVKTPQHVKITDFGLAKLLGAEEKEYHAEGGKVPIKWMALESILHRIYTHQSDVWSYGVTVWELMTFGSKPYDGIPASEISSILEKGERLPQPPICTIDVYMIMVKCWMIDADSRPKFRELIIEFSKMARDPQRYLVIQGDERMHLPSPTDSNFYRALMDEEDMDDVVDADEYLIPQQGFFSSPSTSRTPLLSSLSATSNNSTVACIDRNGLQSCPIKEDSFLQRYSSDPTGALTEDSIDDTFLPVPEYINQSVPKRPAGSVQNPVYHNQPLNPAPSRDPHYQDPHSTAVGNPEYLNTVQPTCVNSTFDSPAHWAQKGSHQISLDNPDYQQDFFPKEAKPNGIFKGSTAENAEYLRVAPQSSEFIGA

In the case of Cc1ncsc1-c1ccc(CNC(=O)[C@@H]2C[C@@H](O)CN2C(=O)[C@@H](NC(=O)COCCOCCOCCn2cc(COc3cc4ncnc(Nc5ccc(F)c(Cl)c5)c4cc3NC(=O)/C=C/CN3CCCCC3)nn2)C(C)(C)C)cc1, the Activity [1] was “inactive”, the Activity (HCC827 [2]) was “inactive” and the Activity [3] was “inactive”.
For Cc1ncsc1-c1ccc(CNC(=O)[C@@H]2C[C@@H](O)CN2C(=O)[C@@H](NC(=O)COCCOCCn2cc(CCCCCOc3cc4ncnc(Nc5ccc(F)c(Cl)c5)c4cc3NC(=O)/C=C/CN3CCCCC3)nn2)C(C)(C)C)cc1, the pIC50 (HCC827 [4]) was 7.73, the Activity [1] was “Dose-Dependent Effect” and the Activity [5] was “Active”. It also gave a pIC50 (HCC827 [6]) of 8.22 and a pIC50 (HCC827 [7]) of 8.40.
